Bridge positions count the residues as written; N and C are the ends. Square brackets hold non-standard residues; d marks the D form. Peptide text beside a SMILES is read from it. * marks the point of attachment. Ileψ(thiazoline)Cys = CC[C@H](C)[C@H](N)C1=N[C@H](C(=O)*)CS1; dOrn = NCCC[C@@H](N)C(=O)O
Key:
[1] = test system: liaI expression (pMUTIN-derived lacZ fusion, strain BFS2470); assay: microbe, parasite or virus in culture; conditions: Bacillus subtilis, 0.5 h, read-out: fold induction of liaI expression
Experimental: Disc-diffusion assays were used to determine the spectrum of stimuli that induce the expression of liaIH. The B. subtilis strains BFS2469 and BFS2470 (Table 2), harboring pMUTIN-insertions in liaH and liaI respectively, were plated on a medium containing the indicator dye X-gal and overlaid with filter disks impregnated with various antibiotics that interfere with cell wall biosynthesis. Specifically, cultures of B. subtilis strain BFS2469 (liaH::pMUTIN) and BFS2470 (liaI::pMUTIN) were grown in LB medium to midlog phase, 2 mL for the un-induced control sample were harvested, and the remaining culture was induced with the three antibiotics for 30 minutes, before the cells of the induced sample were harvested. All samples were taken in duplicate from two independent cultures and the standard deviation is indicated by error bars.
Measurement of induction by β-galactosidase assays: Cells were inoculated from fresh overnight LB-plates and grown in LB-medium at 37° C. with aeration until they reached an O.D.600=0.45. 2 mL of cultures were harvested (un-induced control) and the cell pellets were shock frozen and kept at −70° C. The cultures were induced by addition of antibiotics to a final concentration of: bacitracin (100 μg/mL), tunicamycin (50 μg/mL) or vancomycin (2 μg/mL) and incubated for additional 30 min at 37° C. 2 mL of the cultures were harvested as described above (induced sample). The pellets were re-suspended in 1 mL of working buffer and assayed for β-galactosidase activity as described with normalization to cell density (Miller, 1972, the entire teaching of which is incorporated herein by reference).
For quantitative measurements of β-galactosidase activity, cells were inoculated from fresh overnight LB-plates and grown in LB medium at 37 YC with aeration until they reached an OD600 of 0.45. 2 ml of the culture was harvested (un-induced control) and the cell pellets were frozen and kept at −80 YC. The cultures were induced by addition of the compound to be tested to the final concentration as described in the individual figure legends and incubated for an additional 30 min at 37 YC. 2 ml of the cultures were harvested as described above. The pellets were re-suspended in 1 ml of working buffer (60 mM Na2HPO4, 40 mMNaH2PO4, 10 mM KCl, 1 mM MgSO4, 4 mM DTT) and assayed for β-galactosidase activity as described with normalization to cell density Kobayashi, K., et al., 2001, J Bacteriol 183:7365-7370). […] A sample was taken after 30 min for β-galactosidase assay and the turbidity of the remaining culture was measured for at least 5 hours to monitor the concentration-dependent effects of the antibiotics on cell growth.

[2] = test system: B. subtilis wild-type strain CU1065 gene expression; assay: DNA microarray analysis of the bacitracin stimulon, wild-type CU1065; assay type: cell-based, Bacillus subtilis; conditions: wild type CU1065, 5 min after bacitracin
Description: The bacitracin stimulon of B. subtilis was examined using global transcriptome analysis. […] Under most conditions tested, about 60-70 genes were induced greater than 5-fold. […] The scatter-plot represents the data sets obtained for strain HB0920 (yvqH was still detected as bacitracin-inducible due to the presence of a remaining region near the 5′-end of the gene). […] Members of the σ^M (white open squares) and σ^B (small black triangles) regulon are highlighted. All other gene signals are represented as small gray diamonds. […]
The bacitracin stimulon in the wild-type strain CU1065 was qualitatively similar to that of the liaH-deletion mutant HB0920 as judged by a comparison of the induction profile at 5 min, as illustrated in FIG. 8. […] Relative hybridization intensities are plotted for genes as measured for CU1065 (x axis) and HB0920 (y axis). […]
This locus is therefore a candidate for negative regulation by LiaH. In addition, expression of the bacAB and yvcRS loci was threefold greater in CU1065 than in the liaH mutant when both were measured 5 min after bacitracin treatment. […]
Each slide contains 9220 features corresponding to duplicate copies of each open reading frame, additional PCR products for some ORFs, rRNA genes, and other controls. […] Fluorescent signal intensity data was quantified using ArrayVision software (Molecular Dynamics) and normalized to the total detectable mRNA. […]

With `CC[C@H](C)[C@H](N)C1=N[C@H](C(=O)N[C@@H](CC(C)C)C(=O)N[C@H](CCC(=O)O)C(=O)N[C@H](C(=O)N[C@H]2CCCCNC(=O)[C@H](CC(N)=O)NC(=O)[C@@H](CC(=O)O)NC(=O)[C@H](Cc3cnc[nH]3)NC(=O)[C@@H](Cc3ccccc3)NC(=O)[C@H]([C@@H](C)CC)NC(=O)[C@@H](CCCN)NC2=O)[C@@H](C)CC)CS1` [Bacitracin] ({Ileψ(thiazoline)Cys}-L[dE]IK[dOrn]I[dF]H[dD]N; lactam 4-C) the fold induction at 100 µg/mL [1] was over 500 and the “induction of yhcYZ/yhdA locus” value [2] was “not induced”.
